Our source for the MIC and Ratio values is ChEMBL document CHEMBL5370569, “Camaldulensals A-C, the First Meroterpenoids Possessing Two Spatially Separated Formyl Phloroglucinols Conjugated to a Terpene Core from the Leaves of Eucalyptus camaldulensis Dehnh” (2023).

Common to all, as to assay type: functional
In assay [1] the test system is Staphylococcus aureus. The assay can be described thus: Antibacterial activity against Staphylococcus aureus assessed as bacterial growth inhibtion incubated for 18 hrs by resazurin dye based microdilution assay.
Assay [2] concerns Staphylococcus aureus. Put plainly: Antibacterial activity against Methicillin-resistant Staphylococcus aureus ATCC 43300 assessed as bacterial growth inhibtion incubated for 18 hrs by resazurin dye based microdilution assay.
In assay [3] the test system is Staphylococcus aureus. The assay can be described thus: Antibacterial activity against Methicillin-sensitive Staphylococcus aureus ATCC 25923 assessed as bacterial growth inhibtion incubated for 18 hrs by resazurin dye based microdilution assay.
Assay [4] has as its system Staphylococcus aureus. The assay can be described thus: Potency index, ratio of eucalrobusone-F MIC to test compound MIC for antibacterial activity against Staphylococcus aureus.

Values after ≈ are worked out from the molar mass of the structure shown.

With `C=C(C)[C@@H]1C=C2[C@@H](C)CC[C@@H](Cc3c(O)c(C=O)c(O)c(C(=O)CC(C)C)c3O)[C@]2(C)CC1`, the MIC in assay [1] was found to be 4.7 µM (≈ 2.14 µg/mL).

Turning to `CC(C)CC(=O)c1c(O)c(C=O)c(O)c(C[C@H]2CC(C(C)C)=C[C@H]3Oc4c(c(O)c(C=O)c(O)c4C(=O)CC(C)C)C[C@@]23C)c1O`, the MIC in assay [1], in assay [2] and in assay [3] was 12.6 µM (≈ 8.02 µg/mL) throughout.

As to `CC(=O)CC[C@@H]1[C@H]([C@@H]2C[C@@](C)(C(CC(C)C)c3c(O)c(C=O)c(O)c(C=O)c3O)CC2=O)C1(C)C` (some centres not stated), in assay [1], the MIC worked out at 16.5 µM (≈ 8.03 µg/mL).

For the compound `CC(C)CC(=O)c1c(O)c(C=O)c2c(c1O)C[C@@H]1CC(=O)CC[C@]1(C)O2`, the MIC in assay [2] and in assay [3] was above 899 µM throughout.

With `C=C(C)[C@@H]1CC[C@@]2(C)[C@H](Cc3c(O)c(C=O)c(O)c(C(=O)CC(C)C)c3O)CC[C@@](C)(O)[C@@H]2C1`, the MIC in assay [1] was found to be 19.9 µM (≈ 9.41 µg/mL).

Regarding `CC(C)C[C@@H](c1c(O)c(C=O)c(O)c(C=O)c1O)C1CC[C@@](C)(O)[C@@H]2C[C@H](C(C)(C)O)CC[C@@]12C` (some centres not stated), the MIC in assay [1] turned out to be 16.8 µM (≈ 8.24 µg/mL).

In the case of `C=C1CC[C@@H]2[C@H]([C@H]3[C@H]1CC[C@]3(C)Cc1c(O)c(C=O)c(O)c(C(=O)CCC)c1O)C2(C)C`, the MIC in assay [1] stood at 7.1 µM (≈ 3.13 µg/mL).

Consider `CC(C)CC(=O)c1c(O)c(C=O)c(O)c2c1O[C@]1(C)[C@H](C2)C[C@@]2(C(C)C)C[C@H]21`, for which the MIC in assay [2] and in assay [3] was above 82.9 µM each time.

In the case of `CC(C)CC(=O)c1c(O)c(C=O)c(O)c(C[C@H]2CC(C(C)C)=C[C@H]3Oc4c(C=O)c(O)c(C(=O)CC(C)C)c(O)c4C[C@@]23C)c1O`, the MIC in assay [1], in assay [2] and in assay [3] was 6.3 µM (≈ 4.01 µg/mL) in each case. In assay [4], the Ratio was around 2.

On to `CC(C)CC(c1c(O)c(C=O)c(O)c(C=O)c1O)C1(C)C=C2CCC1C(C(C)(C)O)CCC2C` (configuration not stated), for which, in assay [1], the MIC amounted to 3.4 µM (≈ 1.61 µg/mL).

For the compound `C=C(C)[C@@H]1C=C2[C@@H](C)CC[C@@H](Cc3c(O)c(C=O)c(O)c(C(=O)CCC)c3O)[C@]2(C)CC1`, the MIC in assay [1] was 3.5 µM (≈ 1.54 µg/mL).

As to `CC(C)CC(c1c(O)c(C=O)c(O)c(C=O)c1O)C1(C)CCC2C1C1C(CCC2(C)O)C1(C)C` (configuration not stated), in assay [1], the MIC turned out to be 3.3 µM (≈ 1.56 µg/mL).

On to `Cc1c(O)c(C=O)c(O)c([C@H]2Oc3c(C=O)c(O)c(C(=O)CC(C)C)c(O)c3C[C@@H]2C(C)C)c1O`, for which the MIC in assay [2] and in assay [3] was above 65.8 µM in each case.

For the compound `C=C1CCC2C(C3C1CCC3(C)C(CC(C)C)c1c(O)c(C=O)c(O)c(C=O)c1O)C2(C)C` (configuration not stated), the MIC in assay [1] is 6.9 µM (≈ 3.14 µg/mL).

With `CC(C)CC(c1c(O)c(C=O)c(O)c(C=O)c1O)C1(C)CCC2C1=CC(C(C)(C)O)CCC2C` (configuration not stated), the MIC in assay [1] was found to be 3.3 µM (≈ 1.56 µg/mL).

Take `CC(C)CC(=O)c1c(O)c(C=O)c(O)c2c1O[C@H]1[C@H]3[C@@H](CC[C@]4(C)Oc5c(c(O)c(C=O)c(O)c5C(=O)CC(C)C)C[C@H]4CC[C@]1(C)C2)C3(C)C`: the MIC in assay [2] and in assay [3] was above 45.4 µM in each case.

As to `CC(C)CC(c1c(O)c(C=O)c(O)c(C=O)c1O)C1(C)/C=C2/CCC2C(C(C)(C)O)CCC1C` (configuration not stated), in assay [1], the minimal inhibitory concentration (MIC) is 1.7 µM (≈ 0.803 µg/mL).

With `CC(C)C[C@H]1c2c(O)c(C=O)c(O)c(C=O)c2O[C@]2(C)C=CC(=O)C[C@@H]12`, the MIC in assay [2] and in assay [3] was above 89.4 µM in each case.

As for `CC(C)CC(=O)c1c(O)c(C=O)c(O)c(C[C@@]2(C)CC[C@@H]3[C@@H]2[C@H]2[C@@H](CC[C@@]3(C)O)C2(C)C)c1O` [EUCALYPTIN A], the MIC in assay [1] was 7.4 µM (≈ 3.5 µg/mL).

Take `CC(C)C[C@@H](c1c(O)c(C=O)c(O)c(C=O)c1O)[C@@]1(C)CC[C@@H]2[C@@H]1[C@H]1[C@@H](CC[C@@]2(C)O)C1(C)C` [MACROCARPAL A]: the MIC in assay [1] is 3.3 µM (≈ 1.56 µg/mL).

For `CO[C@H]1/C=C/O[C@@]2(C)Oc3c(C)c(O)c4c(O)c(c(/C=N/N5CCN(C)CC5)c(O)c4c3C2=O)NC(=O)/C(C)=C\C=C\[C@H](C)[C@H](O)[C@@H](C)[C@@H](O)[C@@H](C)[C@H](OC(C)=O)[C@@H]1C` [RIFAMPIN], the MIC in assay [2] and in assay [3] was 0.16 µM (≈ 0.132 µg/mL) throughout.
